Legend:
[1] = Measurement of logP values by HPLC on reversed phase columns (EEC directive 79/831 Annex V.A8); format: physicochemical; conditions: for LogP: method [a]: pH 2,7, 0.1% formic acid in water / acetonitrile, linear gradient 10% to 95% acetonitrile
Experimental: Measurement of logP values was performed according EEC directive 79/831 Annex V.A8 by HPLC (High Performance Liquid Chromatography) on reversed phase columns with the following methods:
^[a] Measurement of LC-MS was done at pH 2,7 with 0.1% formic acid in water and with acetonitrile (contains 0.1% formic acid) as eluent with a linear gradient from 10% acetonitrile to 95% acetonitrile.
Calibration was done with not branched alkan2-ones (with 3 to 16 carbon atoms) with known logP-values (measurement of logP values using retention times with linear interpolation between successive alkanones). lambda-maX-values were determined using UV-spectra from 200 nm to 400 nm and the peak values of the chromatographic signals.

Phytophthora infestans = format: in vivo; conditions: tomato plants, preventive spray, 100 ppm of active ingredient, evaluated 7 days after inoculation
Plasmopara viticola = assay: Plasmopara test (grapevines) / preventive; format: in vivo; conditions: grapevine plants, preventive spray, 10 ppm of active ingredient, evaluated 6 days after inoculation
Experimental: Plasmopara Test (Grapevines)/Preventive
Solvent: 24.5 parts by weight of acetone • 24.5 parts by weight of dimethylacetamide
Emulsifier: 1 part by weight of alkylaryl polyglycol ether
To produce a suitable preparation of active compound, 1 part by weight of active compound is mixed with the stated amounts of solvent and emulsifier, and the concentrate is diluted with water to the desired concentration.
To test for preventive activity, young plants are sprayed with the preparation of active compound at the stated rate of application. After the spray coating has dried on, the plants are inoculated with an aqueous spore suspension of Plasmopara viticola and then remain for 1 day in an incubation cabinet at approximately 20° C. and a relative atmospheric humidity of 100%. The plant is subsequently placed for 4 days in a greenhouse at approximately 21° C. and a relative atmospheric humidity of approximately 90%.
The plants are then misted and placed for 1 day in an incubation cabinet.
The test is evaluated 6 days after the inoculation. 0% means an efficacy which corresponds to that of the untreated control, while an efficacy of 100% means that no disease is observed.

Q: With `CC1=NOC(C)(C(=O)Nc2cccc(CON=C(c3ccccc3)c3nnnn3C)n2)C1` (stereo not drawn) [Example 1] as the compound, how does the LogP [1] read?
A: 2.84^[a]

Q: For `Cn1nnnc1C(=NOCc1cccc(NC(=O)C2CC(c3ccccc3)=NO2)n1)c1ccccc1` (stereo not drawn) [Example 2], which LogP [1] is on record?
A: 3.51^[a]

Q: With `Cn1nnnc1/C(=N\OCc1cccc(NC(=O)C2CC(c3ccccc3F)=NO2)n1)c1ccccc1` (stereo not drawn) [Example 3, 3-(2-fluorophenyl)-N-{6-[({[(Z)-(1-methyl-1H-tetrazol-5-yl)(phenyl)methylene]amino}oxy)methyl]pyridin-2-yl}-4,5-dihydro-1,2-oxazole-5-carboxamide] as the compound, how does the Eff. % (Phytophthora infestans) read?
A: 93%

Q: What about the Eff. % (Plasmopara viticola) of the same compound?
A: 74%

Q: What about the chromatographic logP ([1]; reversed phase HPLC columns, pH 2.7, HCOOH method, reported in preparation example) of the same compound?
A: 3.5

Q: What does the source list for `Cc1nnnn1C(=NOCc1cccc(NC(=O)C2CC(c3ccccc3F)=NO2)n1)c1ccccc1` (stereo not drawn) [Example 4]?
A: Eff. % (Phytophthora infestans): 95%; LogP [1]: 3.59^[a]

Q: What does the source list for `Cn1nnnc1C(=NOCc1cccc(NC(=O)C2(C)CC(c3ccccc3)=NO2)n1)c1ccccc1` (stereo not drawn) [Example 5]?
A: Eff. % (Phytophthora infestans): 89%; LogP [1]: 3.87^[a]

Q: Which Eff. % (Phytophthora infestans) does the source give for `Cc1nnnn1C(=NOCc1cccc(NC(=O)C2(C)CC(c3ccccc3)=NO2)n1)c1ccccc1` (stereo not drawn) [Example 6] here?
A: 95%

Q: What about the Eff. % (Plasmopara viticola) of the same compound?
A: 85%

Q: What about the LogP [1] of the same compound?
A: 3.94^[a]

Q: With `CC1=NOC(C)(C(=O)Nc2nc(CON=C(c3ccccc3)n3nnnc3C)cs2)C1` (stereo not drawn) [Example 7] as the compound, how does the LogP [1] read?
A: 2.73^[a]

Q: What does the source list for `Cc1nnnn1C(=NOCc1csc(NC(=O)C2CC(c3ccccc3)=NO2)n1)c1ccccc1` (stereo not drawn) [Example 8]?
A: Eff. % (Phytophthora infestans): 95%; LogP [1]: 3.35^[a]

Q: What does the source list for `CC1=NOC(C)(C(=O)Nc2nc(CON=C(c3ccccc3)c3nnnn3C)cs2)C1` (stereo not drawn) [Example 9]?
A: Eff. % (Phytophthora infestans): 85%; LogP [1]: 2.69^[a]

Q: For `Cn1nnnc1C(=NOCc1csc(NC(=O)C2CC(c3ccccc3)=NO2)n1)c1ccccc1` (stereo not drawn) [Example 10], which Eff. % (Phytophthora infestans) is on record?
A: 93%

Q: And the LogP [1]?
A: 3.31^[a]

Q: Which Eff. % (Phytophthora infestans) does the source give for `Cn1nnnc1C(=NOCc1csc(NC(=O)C2CC(c3ccccc3F)=NO2)n1)c1ccccc1` (stereo not drawn) [Example 11] here?
A: 95%

Q: And the LogP [1]?
A: 3.29^[a]

Q: Which results are given for `Cc1nnnn1C(=NOCc1csc(NC(=O)C2CC(c3ccccc3F)=NO2)n1)c1ccccc1` (stereo not drawn) [Example 12]?
A: Eff. % (Phytophthora infestans): 95%; LogP [1]: 3.31^[a]

Q: Which results are given for `Cn1nnnc1C(=NOCc1csc(NC(=O)C2(C)CC(c3ccccc3)=NO2)n1)c1ccccc1` (stereo not drawn) [Example 13]?
A: Eff. % (Phytophthora infestans): 100%; Eff. % (Plasmopara viticola): 97%; LogP [1]: 3.6^[a]

Q: Which Eff. % (Phytophthora infestans) does the source give for `Cc1nnnn1C(=NOCc1csc(NC(=O)C2(C)CC(c3ccccc3)=NO2)n1)c1ccccc1` (stereo not drawn) [Example 14] here?
A: 95%

Q: What about the Eff. % (Plasmopara viticola) of the same compound?
A: 92%

Q: What about the LogP [1] of the same compound?
A: 3.64^[a]

Q: What does the source list for `Cn1nnnc1C(=NOCc1csc(NC(=O)C2CC(c3ccccc3Cl)=NO2)n1)c1ccccc1` (stereo not drawn) [Example 15]?
A: Eff. % (Phytophthora infestans): 90%; LogP [1]: 3.48^[a]

Q: What does the source list for `CC1=NOC(C(=O)Nc2nc(CON=C(c3ccccc3)c3nnnn3C)cs2)C1` (stereo not drawn) [Example 16]?
A: Eff. % (Phytophthora infestans): 93%; LogP [1]: 2.35^[a]

Q: With `Cn1nnnc1C(=NOCc1csc(NC(=O)C2CC(c3cc(F)ccc3F)=NO2)n1)c1ccccc1` (stereo not drawn) [Example 17] as the compound, how does the Eff. % (Phytophthora infestans) read?
A: 95%

Q: And the LogP [1]?
A: 3.39^[a]

Q: For `CC(C)C1=NOC(C(=O)Nc2nc(CON=C(c3ccccc3)c3nnnn3C)cs2)C1` (stereo not drawn) [Example 18], which Eff. % (Phytophthora infestans) is on record?
A: 93%

Q: What about the LogP [1] of the same compound?
A: 2.92^[a]

Q: For `CCC1=NOC(C(=O)Nc2nc(CON=C(c3ccccc3)c3nnnn3C)cs2)C1` (stereo not drawn) [Example 19], which Eff. % (Phytophthora infestans) is on record?
A: 85%

Q: What about the LogP [1] of the same compound?
A: 2.64^[a]

Q: Which results are given for `Cn1nnnc1C(=NOCc1csc(NC(=O)C2CC(c3c(F)cccc3Cl)=NO2)n1)c1ccccc1` (stereo not drawn) [Example 20]?
A: Eff. % (Phytophthora infestans): 93%; LogP [1]: 3.44^[a]

Q: Which results are given for `COc1ccc(C2=NOC(C(=O)Nc3nc(CON=C(c4ccccc4)c4nnnn4C)cs3)C2)cc1` (stereo not drawn) [Example 21]?
A: Eff. % (Phytophthora infestans): 85%; LogP [1]: 3.25^[a]

Q: With `Cc1nnnn1C(=NOCc1csc(NC(=O)C2CC(c3c(F)cccc3Cl)=NO2)n1)c1ccccc1` (stereo not drawn) [Example 22] as the compound, how does the Eff. % (Phytophthora infestans) read?
A: 90%

Q: And the LogP [1]?
A: 3.48^[a]

Q: For `COc1ccc(C2=NOC(C(=O)Nc3nc(CON=C(c4ccccc4)n4nnnc4C)cs3)C2)cc1` (stereo not drawn) [Example 23], which LogP [1] is on record?
A: 3.29^[a]

Q: Which results are given for `Cc1nnnn1C(=NOCc1csc(NC(=O)C2CC(c3cc(F)ccc3F)=NO2)n1)c1ccccc1` (stereo not drawn) [Example 24]?
A: Eff. % (Phytophthora infestans): 93%; LogP [1]: 3.46^[a]

Q: With `Cc1nnnn1C(=NOCc1csc(NC(=O)C2CC(C(C)C)=NO2)n1)c1ccccc1` (stereo not drawn) [Example 25] as the compound, how does the Eff. % (Phytophthora infestans) read?
A: 85%

Q: What about the LogP [1] of the same compound?
A: 2.96^[a]

Q: For `CCC1=NOC(C(=O)Nc2nc(CON=C(c3ccccc3)n3nnnc3C)cs2)C1` (stereo not drawn) [Example 26], which LogP [1] is on record?
A: 2.68^[a]

Q: With `CC1=NOC(C(=O)Nc2nc(CON=C(c3ccccc3)n3nnnc3C)cs2)C1` (stereo not drawn) [Example 27] as the compound, how does the LogP [1] read?
A: 2.42^[a]

Q: Which results are given for `Cc1nnnn1C(=NOCc1csc(NC(=O)C2CC(c3ccccc3Cl)=NO2)n1)c1ccccc1` (stereo not drawn) [Example 28]?
A: Eff. % (Phytophthora infestans): 90%; LogP [1]: 3.55^[a]
